≈ marks a conversion by molar mass, not a printed value.
What was measured:
KM mice = test: Acetic acid induced writhing test; assay type: in vivo; details: 30 mg/kg s.c.; for No. of writhing's: 0.6% acetic acid 15 min after dosing, 30-minute period; for Percentage of Inhibition / Significant compared to the model group: writhing
Description: Fifteen minutes after administration, a 0.6% acetic acid solution (5 mL/kg) was injected into the abdominal cavity. The mice were then placed in an observation box, and the number of writhing episodes was recorded within a 30-minute period. The assessment of pain intensity was based on the observation of the mice's writhing behavior.

[1] = Plasma protein binding by dialysis; assay type: in vitro ADME; details: rat plasma; for Protein Binding Fu(%) / fraction unbound at 5 h, 1 μM: 1 μM, 5 hours dialysis at 37° C.; for fraction unbound at 5 h, 1 μM: read-out: Protein Binding Fraction unbound (fu) (converted)
Description: The following solutions were prepared: Solution A (0.5 mM) 10 μL of 10 mM stock solution was added into 190 μL of DMSO and Solution B (0.02 mM): 8 μL of Solution A was added into 192 μL of 0.05 M sodium phosphate buffer. The final DMSO concentration in Solution B is 4%.
A 96-well plate was preloaded with 380 μL aliquots of plasma in the wells designated for plasma and buffer, respectively. 20 μL of Solution B (0.02 mM of test and reference compounds) was spiked into the pre-loaded plasma in the 96-well plate. The final test concentration was 1 μM containing 0.2% DMSO.
Aliquots of 100 μL of blank dialysis buffer were applied to the receiver side of dialysis chambers. Next aliquots of 100 μL of the plasma spiked with test and reference compounds were applied to the donor side of the dialysis chambers. Blank buffer was added to the receiver first and the buffer and plasma chambers were clearly marked to avoid cross contamination.
Aliquots of 25 μL of plasma spiked with test and reference compounds were placed in 96-well sample preparation plates as t=0 min plasma samples. The aliquots were mixed with the same volume of blank buffer (50:50, v/v). The samples were quenched with 200 μL of acetonitrile containing internal standard (IS). The dialysis block was covered with a plastic lid and the entire apparatus was placed on a shaker (60 rpm) for 5 hours at 37° C.
25 μL aliquot from both the donor sides and receiver sides of the dialysis apparatus were placed into new sample preparation plates and mixed with the same valune of opposite matrixes (blank buffer to plasma and vice versa). The sample was quenched with 200 μL acetonitrile containing internal standard. All the samples from 0 hour to 5 hours were vortexed at 600 rpm for 10 minutes followed by centrifugation at 5594 g for 15 minutes (Thermo Multifuge×3R). 50 μL of the supernatant was transferred to a new 96-well plate and the sample was mized with 50 μL of Mili-Q water. The sample plate was covered and stored in a −20° C. freezer. The samples were subsequently analyzed by LC/MS/MS.

Solubility = assay type: physicochemical; details: aqueous buffer, kinetic from dmso stock; PBS(Ph 7.4), 1 hour shaking at room temperature; read-out: Solubility SolubilityU (um)
Description: 10 μL test compound was added to 990 μL buffer. Sample tubes were shaken for 1 hour (1000 rpm) at room temperature. Samples were centrifuged for 10 minutes at 1200 rpm to precipitate un-dissolved particles. Supernatants were collected for LCMSMS or LC-UV analysis.

RBC partitioning study = assay type: in vitro ADME; details: rat
Description: 0.05 M sodium phosphate buffer, pH 7.4 was prepared using the following steps. Stock A, stock B, and stock C solutions were prepared by adding 156 g of monobasic sodium phosphate in 1 L of Milli-Q water (1.0 M), 142 g of dibasic sodium phosphate in 1 L of Milli-Q water (1.0 M), and 58.5 g of sodium chloride in 1 L of Milli-Q water (1.0 M) respectively. 20.25 mL of Stock B and 4.75 mL of Stock A were added to 35 mL of Stock C and the total volume was brought to near 500 mL with Milli-Q water. The resulting buffer solution was titrated with NaOH or H3PO4 to pH 7.4 and the total volume was brought to 500 mL. The 0.05 M sodium phosphate buffer was preheated at 37° C.
Fresh blank plasma preparation and hematocrit determination. A tube containing whole blood was centrifuged at 4000 rpm for 10 minuts. The plasma was harvested was stored. Hematocrit (the volume of red blood cells to the total volume of whole blood) was determined using the formula:
Hematocrit=Vred cells/Vblood=(Vblood−Vplasma)/Vblood
Vblood: the volume of whole blood applied
Vplasma: the volume of plasma measured after centrifugation
Preparation of reference and test compound spiking solutions in plasma. 1.25 mM spiking solution A was prepared by adding add 10 μL of 10 mM reference into 70 μL of plasma (8-fold dilution).
Preparation of reference and test compound in whole blood and plasma. For whole blood samples, 12 μL of spiking solution B (prepared above) was added to 288 μL of whole blood (25-fold dilution). For plasma samples, 6 μL of spiking solution B was added to 144 μL of plasma (25-fold dilution). The assay procedure used is as follows. The assay plate was placed in an incubator at 37° C. for 60 minutess. 300 μL of compound spiking solution in whole blood from above was removed and centrifuged at 4000 rpm for 10 minutes. Subsequently plasma was harvested. 50 μL of plasma sample was removed and 150 μL of acetonitrile (containing IS) was added and vortexed for 5 min. The sample was centrifuged at 6000 rpm for 15 minutes. The supernatant was removed and analyzed by LC/MS.

CC(C)(NC(=O)[C@H]1[C@@H]2CNC[C@H]1C2)c1ncc2c(Cl)cccn12 [Compound 7, (1R,5S,6r)-N-(2-(8-chloroimidazo[1,5-a]pyridin-3-yl)propan-2-yl)-3-azabicyclo[3.1.1]heptane-6-carboxamide]
No. of writhing's (KM mice): 10 | Percentage of Inhibition (KM mice): 69.16% | Significant compared to the model group (KM mice): Yes | Protein Binding Category [1]: Moderate | recovery at 5 h, 1 µM [1]: 96.6% | Protein Binding Fu(%) [1]: 37.8% | fraction unbound at 5 h, 1 μM [1]: 0.378 | solubility at 1 h (Solubility): 101.75 ± 0.03 µM (≈ 33.9 µg/mL) | RBC Partitioning Study KRBC/PL (RBC partitioning study): 1.15

CC(C)(NC(=O)[C@H]1[C@@H]2CNC[C@H]1C2)c1ncc2c(Br)cccn12 [Compound 8, (1R,5S,6r)-N-(2-(8-bromoimidazo[1,5-a]pyridin-3-yl)propan-2-yl)-3-azabicyclo[3.1.1]heptane-6-carboxamide]
No. of writhing's (KM mice): 3 | Percentage of Inhibition (KM mice): 86.26% | Significant compared to the model group (KM mice): Yes | Protein Binding Category [1]: Moderate | recovery at 5 h, 1 µM [1]: 103% | Protein Binding Fu(%) [1]: 28.16% | fraction unbound at 5 h, 1 μM [1]: 0.282 | solubility at 1 h (Solubility): 91.6 µM (≈ 34.6 µg/mL) | RBC Partitioning Study KRBC/PL (RBC partitioning study): 0.94

CC(C)(NC(=O)[C@H]1[C@@H]2CNC[C@H]1C2)c1nc(C2CC2)c2ccccn12 [Compound 9, (1R,5S,6r)-N-(2-(1-cyclopropylimidazo[1,5-a]pyridin-3-yl)propan-2-yl)-3-azabicyclo[3.1.1]heptane-6-carboxamide]
No. of writhing's (KM mice): 8 | Percentage of Inhibition (KM mice): 62.34% | Significant compared to the model group (KM mice): Yes | Protein Binding Category [1]: Moderate | recovery at 5 h, 1 µM [1]: 68.2% | Protein Binding Fu(%) [1]: 40.9% | fraction unbound at 5 h, 1 μM [1]: 0.409 | solubility at 1 h (Solubility): 130.5 ± 0.02 µM (≈ 44.2 µg/mL) | RBC Partitioning Study KBlood/PL (RBC partitioning study): 1.05 | RBC Partitioning Study KRBC/PL (RBC partitioning study): 1.09
